Results reported in PubChem BioAssay (NCI).
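Cultured in 96-well plates, cells were exposed to test compound for 48 hours across five concentrations. GI50 is the concentration that inhibits growth by half. TGI denotes the concentration required for complete inhibition of growth.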

What was measured:
Assay in all cases: NCI tumour cell line growth inhibition, 48 h
A498 renal = system: A498 renal
BT-549 breast = system: BT-549 breast
DU-145 prostate = system: DU-145 prostate
HOP-92 NSCLC = system: HOP-92 NSCLC
HS 578T breast = system: HS 578T breast
MCF7 breast = system: MCF7 breast
MDA-MB-435 = system: MDA-MB-435
NCI-H226 lung = system: NCI-H226 lung
SR leukemia = system: SR leukemia
NCI-H522 lung = system: NCI-H522 lung

For CCn1cc(C(c2ccc(Cl)cc2)n2ccnc2)c2cc(Br)ccc21 (centres undefined), the TGI (A498 renal) was 27 µM, the TGI (BT-549 breast) was 31.9 µM and the TGI (DU-145 prostate) was 30.3 µM. For the same molecule, the TGI (HOP-92 NSCLC) was 19.4 µM, the TGI (HS 578T breast) was 47.2 µM and the TGI (MCF7 breast) was 29.8 µM. The TGI (MDA-MB-435) was 27 µM, the TGI (NCI-H226 lung) was 76.5 µM and the TGI (SR leukemia) was 36.8 µM.

With COC1OC(=O)[C@H]2O[N+]([O-])=C(C)[C@@H]12 (some centres undefined) the TGI (A498 renal) was > 100 µM, the TGI (HOP-92 NSCLC) was > 100 µM and the TGI (MCF7 breast) was > 100 µM. For the same molecule, the TGI (NCI-H226 lung) was > 100 µM and the TGI (NCI-H522 lung) was > 100 µM.

In the case of C/C(=N\NC(=S)NC(C)C)c1nc2ncccc2[nH]1, the TGI (A498 renal) is reported as > 100 µM, the TGI (BT-549 breast) is reported as 58.9 µM and the TGI (DU-145 prostate) is reported as > 100 µM. For the same molecule, the TGI (HOP-92 NSCLC) was 84.3 µM, the TGI (HS 578T breast) was 69.7 µM and the TGI (MCF7 breast) was > 100 µM. The TGI (NCI-H226 lung) was 51.3 µM, the TGI (NCI-H522 lung) was > 76.3 µM and the TGI (SR leukemia) was > 100 µM.

O=C1CC(=O)N(c2ccccc2)N1/C(=C/c1ccccc1)c1ccccc1 showed a TGI (BT-549 breast) of 50.2 µM, a TGI (DU-145 prostate) of 82.6 µM and a TGI (HOP-92 NSCLC) of 31.3 µM. It also gave a TGI (HS 578T breast) of 45.4 µM, a TGI (MCF7 breast) of 57.3 µM and a TGI (MDA-MB-435) of 36.5 µM. It also gave a TGI (NCI-H226 lung) of 73.5 µM and a TGI (SR leukemia) of 40.9 µM.

C=CC(=O)Nc1cccc(-c2nc(SC)nc(Nc3ccccc3OC)c2C#N)c1 gave a GI50 (A498 renal) of 2.8 µM, a TGI (A498 renal) of 9.34 µM and a GI50 (BT-549 breast) of 3.19 µM. The TGI (BT-549 breast) was 38.5 µM, the GI50 (DU-145 prostate) was 1.92 µM and the TGI (DU-145 prostate) was 4.96 µM. For the same molecule, the GI50 (HOP-92 NSCLC) was 1.7 µM, the TGI (HOP-92 NSCLC) was 4.28 µM and the GI50 (HS 578T breast) was 2.34 µM. For the same molecule, the TGI (HS 578T breast) was 6.61 µM, the GI50 (MDA-MB-435) was 1.93 µM and the TGI (MDA-MB-435) was 4.48 µM. The GI50 (NCI-H226 lung) was 9.7 µM, the TGI (NCI-H226 lung) was 36.1 µM and the GI50 (NCI-H522 lung) was 2.04 µM. For the same molecule, the TGI (NCI-H522 lung) was 6.53 µM, the GI50 (SR leukemia) was 1.49 µM and the TGI (SR leukemia) was 4.19 µM.

For Nc1ccccc1Nc1ccccc1C(=O)[O-].Nc1ccccc1Nc1ccccc1C(=O)[O-].[Cu+2], the TGI (A498 renal) was > 100 µM and the TGI (NCI-H522 lung) was > 100 µM.

O=C(NS(=O)(=O)Nc1ccc(Cl)cc1)OCc1ccc(Cl)cc1Cl gave a TGI (A498 renal) of 38.8 µM, a TGI (BT-549 breast) of 82.3 µM and a TGI (DU-145 prostate) of 46.5 µM. It also gave a TGI (HOP-92 NSCLC) of 61.9 µM, a TGI (HS 578T breast) of 37.5 µM and a TGI (MCF7 breast) of 31.9 µM. The TGI (MDA-MB-435) was 50.9 µM and the TGI (SR leukemia) was > 100 µM.
